# From patent US9364459B2, “3-(indolyl)- or 3-(azaindolyl)- 4-arylmaleimide derivatives for use in the treatment of colon and gastric adenocarcinoma” (Johannes Gutenberg-Universität Mainz, priority 2009, dated 2016)
# What was measured:
# [1] = test system: HUVEC; test: Nicoletti apoptosis assay (sub-G1 fraction) in HUVEC; type: cell-based, human; details: 4 days, untreated 15.4 ± 1.5%
# Experimental: (§1) Nicoletti Apoptosis Assay by Cell Cycle Analysis
# (§2) Cancer cells were transferred to 12-well flat-bottomed plates. […] Subsequently, cells were incubated in 1 ml medium containing various concentrations of test compounds at 37° C. with 5% CO2. After incubation the cells were washed with PBS, trypsinized, pelleted and mixed with PI buffer (containing 0.1% sodium citrate, 0.1% triton X-100, […] propidium iodide (PI)) and incubated for 1 hour at 4° C. Cell cycle sub-G1 fraction analysis was performed as described previously (Nicoletti, I. et al. (1991) J. Immunol. Methods 139, 271-279) using a flow cytometer (BD FACS Calibur™, BD Biosciences, Heidelberg, Germany). Each experiment was done in triplicate.
# The same analysis was performed with HUVEC cells. 1.5×10^4 cells were plated into each well and treated with test compounds for 4 days.
# Human Umbilical Vein Endothelial Cells (HUVEC) known for mitogenic specifity for VEGF were obtained from the Department of Pathology, University Hospital of Mainz, Germany. The cells were cultured in M199 supplemented with 20% FCS, 1% Pen/Strep, 0.34% GlutaMAX-I, 25 μg/ml Endothelial Cell Growth Supplement (BD Biosciences), 25 μg/ml Heparin sodium (179 USP units/mg; Sigma, Germany) and were maintained at 37° C. and 5% CO2.
# [2] = molecular target: VEGFR-2 (Homo sapiens (Human), UniProt P35968); test: VEGFR-2 kinase inhibition assay (Millipore IC50Profiler); type: biochemical
# VEGFR-2, sequence (P35968 20-1356): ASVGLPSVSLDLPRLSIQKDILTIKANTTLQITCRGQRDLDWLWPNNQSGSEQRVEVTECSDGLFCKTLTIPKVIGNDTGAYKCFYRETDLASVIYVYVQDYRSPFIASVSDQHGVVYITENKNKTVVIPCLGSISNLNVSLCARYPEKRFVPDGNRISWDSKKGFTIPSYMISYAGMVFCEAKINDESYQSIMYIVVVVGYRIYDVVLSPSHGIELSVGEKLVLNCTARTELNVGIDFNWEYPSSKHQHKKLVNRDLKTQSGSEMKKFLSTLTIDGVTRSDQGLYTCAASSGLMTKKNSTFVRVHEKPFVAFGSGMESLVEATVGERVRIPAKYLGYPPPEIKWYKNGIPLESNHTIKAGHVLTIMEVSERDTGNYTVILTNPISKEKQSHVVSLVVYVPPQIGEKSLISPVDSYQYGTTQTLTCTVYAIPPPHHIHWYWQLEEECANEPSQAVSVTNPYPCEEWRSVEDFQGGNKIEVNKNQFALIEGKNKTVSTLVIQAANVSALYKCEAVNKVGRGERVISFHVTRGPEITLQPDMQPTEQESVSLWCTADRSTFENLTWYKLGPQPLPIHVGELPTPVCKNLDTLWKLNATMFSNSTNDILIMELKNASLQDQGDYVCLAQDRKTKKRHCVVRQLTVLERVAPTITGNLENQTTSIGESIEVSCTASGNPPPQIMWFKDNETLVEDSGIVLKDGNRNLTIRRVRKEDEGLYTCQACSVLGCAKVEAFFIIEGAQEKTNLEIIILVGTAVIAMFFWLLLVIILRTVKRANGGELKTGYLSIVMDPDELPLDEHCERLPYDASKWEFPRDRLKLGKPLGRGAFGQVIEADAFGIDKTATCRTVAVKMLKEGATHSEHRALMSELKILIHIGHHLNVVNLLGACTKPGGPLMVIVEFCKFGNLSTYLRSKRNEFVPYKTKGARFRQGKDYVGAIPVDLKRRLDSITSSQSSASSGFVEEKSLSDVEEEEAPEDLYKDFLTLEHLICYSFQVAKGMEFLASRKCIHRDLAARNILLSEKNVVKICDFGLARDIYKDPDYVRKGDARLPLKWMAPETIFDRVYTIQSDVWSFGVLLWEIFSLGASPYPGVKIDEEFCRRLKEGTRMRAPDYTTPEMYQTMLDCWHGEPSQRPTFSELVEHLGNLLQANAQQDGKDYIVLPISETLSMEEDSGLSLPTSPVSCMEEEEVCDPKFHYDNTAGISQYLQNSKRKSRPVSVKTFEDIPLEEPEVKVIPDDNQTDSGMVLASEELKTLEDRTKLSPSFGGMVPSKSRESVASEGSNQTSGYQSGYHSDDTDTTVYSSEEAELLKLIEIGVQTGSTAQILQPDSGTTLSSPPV
# Description: (§3) GSK-3β, VEGFR-2, FLT-3 Kinase Inhibition Assays
# (§4) Detailed protocols can be found at: www.millipore.com/drugdiscovery/dd3/assayprotocols.
# [3] = molecular target: FLT-3 (Homo sapiens (Human), UniProt P36888); test: FLT-3 kinase inhibition assay (Millipore IC50Profiler); type: biochemical
# FLT-3, sequence (P36888 27-993): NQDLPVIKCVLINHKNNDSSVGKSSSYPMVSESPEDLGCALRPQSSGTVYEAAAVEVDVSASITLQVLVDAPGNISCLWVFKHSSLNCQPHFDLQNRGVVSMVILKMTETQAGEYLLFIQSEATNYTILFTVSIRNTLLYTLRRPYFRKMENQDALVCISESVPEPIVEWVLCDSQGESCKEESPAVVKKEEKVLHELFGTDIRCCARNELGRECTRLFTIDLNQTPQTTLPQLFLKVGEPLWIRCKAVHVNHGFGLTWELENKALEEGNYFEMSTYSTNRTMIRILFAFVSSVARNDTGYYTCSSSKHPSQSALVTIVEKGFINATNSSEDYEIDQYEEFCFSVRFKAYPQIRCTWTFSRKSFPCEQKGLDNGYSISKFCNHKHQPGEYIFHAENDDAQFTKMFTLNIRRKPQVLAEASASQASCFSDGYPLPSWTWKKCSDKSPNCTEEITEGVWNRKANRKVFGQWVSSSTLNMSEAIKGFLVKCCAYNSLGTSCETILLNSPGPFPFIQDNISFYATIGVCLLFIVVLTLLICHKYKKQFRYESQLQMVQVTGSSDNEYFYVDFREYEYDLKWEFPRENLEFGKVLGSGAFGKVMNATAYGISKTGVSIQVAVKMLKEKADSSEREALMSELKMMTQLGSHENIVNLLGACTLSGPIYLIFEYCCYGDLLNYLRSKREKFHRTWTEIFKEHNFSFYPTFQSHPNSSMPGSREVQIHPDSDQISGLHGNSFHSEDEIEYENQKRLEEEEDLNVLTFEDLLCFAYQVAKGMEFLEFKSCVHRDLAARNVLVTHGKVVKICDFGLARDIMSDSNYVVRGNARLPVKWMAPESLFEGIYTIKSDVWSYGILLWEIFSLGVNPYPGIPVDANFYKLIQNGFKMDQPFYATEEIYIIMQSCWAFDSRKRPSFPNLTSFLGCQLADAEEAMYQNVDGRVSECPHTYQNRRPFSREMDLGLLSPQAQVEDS
# Experimental: as §3
# The effect of test compounds on the activity of the protein kinases GSK-3β, VEGFR-2 and FLT-3 was evaluated based on half maximal inhibitory concentration (IC50) values determined by Millipore UK Ltd; Gemini Crescent; Dundee Technology Park; Dundee DD2 1SW; UK (IC50Profiler). Detailed protocols can be found at: www.millipore.com/drugdiscovery/dd3/assayprotocols.
# [4] = test system: Caco-2; test: Nicoletti apoptosis assay in Caco-2 cells; type: cell-based, human
# Experimental: as §1, §2
# [5] = test system: SW480; test: Nicoletti apoptosis assay in SW480 cells; type: cell-based, human
# Experimental: as §1, §2
# [6] = test system: HT-29 human colon adenocarcinoma cells; test: MTT viability assay in HT-29 cells; details: HT-29, 72 h, read-out: Viability of HT-29 cells as determined by MTT assay
# Experimental: Evaluation of Effect on Viability (MTT Assay)
# The antiproliferative activity of test compounds was determined by the 3-(4,5-dimethylthiazol-2-yl)-2,5-diphenyltetrazolium bromide (MTT) assay as described previously (Mosmann, T. et al. (1983) J. Immunol. Methods 65, 55-63). Cells in the exponential growth phase were transferred to 96-well flat-bottom plates. 10,000 viable cells contained in 200 μl cell suspension were plated into each well and incubated over night. Cells were then exposed to various concentrations of test compounds (100 μl/well) for 3 days at 37° C. with 5% CO2. Subsequently, 10 μl/well MTT stock solution (5 mg/ml; Biomol, Germany) was added and the cells were incubated at 37° C. with 5% CO2 for 4 hours. 100 μl solubilization solution (10% SDS in 0.01 M HCl) was added and the cells were incubated at 37° C. with 5% CO2 over night. Plates were read on an ELISA-Reader ELX 800 (BIO-TEK Software KC 4) at 562 nm absorbance. Each experiment was done in triplicate.
# HCT-116, HT-29 and SW480 cells were cultured in RPMI1640 supplemented with 10% FCS. […] All cells were maintained at 37° C. and 5% CO2.
# [7] = test system: HCT-116; test: Nicoletti apoptosis assay in HCT-116 cells; type: cell-based, human
# Experimental: as §1, §2
# [8] = test system: MKN-45; test: Nicoletti apoptosis assay in MKN-45 cells; type: cell-based, human
# Experimental: as §1, §2
# [9] = test system: chick embryo microvessel formation; test: Quantitative chick embryo in vivo assay of antiangiogenic activity; details: Gallus gallus; 26 nM drug concentration/pellet; 24 hours incubation; read-out: Inhibition of microvessel area
# Experimental: Evaluation of Antiangiogenic Activity in a Quantitative Chick Embryo In Vivo Assay
# The inhibition of angiogenesis (new blood vessel formation) was measured as described in WO2006/061212.
# [10] = test system: HT-29; test: Nicoletti apoptosis assay in HT-29 cells; type: cell-based, human; details: HT-29
# Experimental: as §1, §2
# [11] = molecular target: GSK-3β (Homo sapiens (Human), UniProt P49841); test: GSK-3β kinase inhibition assay (Millipore IC50Profiler); type: biochemical
# GSK-3β, sequence (P49841 whole entry): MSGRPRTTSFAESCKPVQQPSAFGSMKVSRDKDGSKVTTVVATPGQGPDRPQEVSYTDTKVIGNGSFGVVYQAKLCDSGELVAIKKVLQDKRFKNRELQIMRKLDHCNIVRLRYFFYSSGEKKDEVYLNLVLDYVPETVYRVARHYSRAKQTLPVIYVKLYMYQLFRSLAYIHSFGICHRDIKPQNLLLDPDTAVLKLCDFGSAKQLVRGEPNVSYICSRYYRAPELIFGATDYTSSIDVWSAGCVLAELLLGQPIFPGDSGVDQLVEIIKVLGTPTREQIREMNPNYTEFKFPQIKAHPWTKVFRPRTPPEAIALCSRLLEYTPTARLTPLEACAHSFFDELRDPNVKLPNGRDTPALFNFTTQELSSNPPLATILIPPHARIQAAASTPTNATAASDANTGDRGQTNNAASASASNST
# Description: as §3, §4
# [12] = Table 6, 7.9 μM comp. A plus 1.18 μM irinotecan
# [13] = Table 6, 7.9 μM compound A alone
# [14] = Table 7, 7.9 μM compound A alone
# [15] = Table 7, 7.9 μM compound A plus 20 nM topotecan
compound,measurement,setting,value
"COc1cc(C2=C(c3c[nH]c4ccccc34)C(=O)NC2=O)cc(OC)c1OC [A, 3-(1H-indol-3-yl)-4-(3,4,5-trimethoxyphenyl)-maleinimid]",Sub-G1 Fraction,[1]; 0.79 μM,25. ± 0.9%
same,Sub-G1 Fraction,[1]; 2.6 μM,87.7 ± 2.3%
same,Sub-G1 Fraction,[1]; 7.9 μM,88.9 ± 4.0%
same,IC50,[2],90 nM
same,"VEGFR-2 IC50 values, in words",[2]; Table 2,low nanomolar range
same,IC50,[3],166 nM
same,"FLT-3 inhibition, in words",[3]; Table 2,most significantly inhibited
same,"Combined effect of compound A and low dosed irinotecan on apoptosis, in words",[4],Significant synergistic effects
same,Sub-G1 Fraction,[4]; [12],43.70 ± 2.2%
same,Sub-G1 Fraction,[4]; [13],6.00 ± 2.3%
same,Sub-G1 Fraction,[4]; [14],5.9 ± 0.6%
same,Sub-G1 Fraction,[4]; [15],52.07 ± 2.84%
same,"Combined effect of compound A and low dosed irinotecan on apoptosis, in words",[5],Significant synergistic effects
same,Sub-G1 Fraction,[5]; [12],32.21 ± 0.40%
same,Sub-G1 Fraction,[5]; [13],9.96 ± 2.3%
same,Sub-G1 Fraction,[5]; [14],10 ± 2.3%
same,Sub-G1 Fraction,[5]; [15],38.81 ± 0.88%
same,viability at 2.6 µM,[6],78.5 ± 3.7%
same,viability at 7.9 µM,[6],62.9 ± 1.5%
same,viability at 26 µM,[6],53.9 ± 4.8%
same,viability at 52 µM,[6],42.8 ± 1.6%
same,"Combined effect of compound A and low dosed irinotecan on apoptosis, in words",[7],Significant synergistic effects
same,Sub-G1 Fraction,[7]; [12],27.90 ± 3.4%
same,Sub-G1 Fraction,[7]; [13],3.70 ± 2.8%
same,Sub-G1 Fraction,[8]; [12],51.44 ± 0.2%
same,Sub-G1 Fraction,[8]; [13],20.16 ± 1.6%
same,Sub-G1 Fraction,[8]; [14],20.2 ± 1.6%
same,Sub-G1 Fraction,[8]; [15],61.1 ± 1.2%
same,inhibition at 0.026 µM,[9],82%
same,"Combined effect of compound A and low dosed irinotecan on apoptosis, in words",[10],Significant synergistic effects
same,"Combined effect of compound A and topotecan on apoptosis, in words",[10],synergistically inhibited apoptosis
same,"Induction of apoptosis in combination with irinotecan compared with vandetanib or sunitinib, in words",[10]; 7 days combination treatment with irinotecan,greater induction of apoptosis
same,Sub-G1 Fraction,[10]; [12],57.40 ± 1.6%
same,Sub-G1 Fraction,[10]; [13],5.90 ± 0.6%
same,Sub-G1 Fraction,[10]; [14],5.9 ± 0.6%
same,Sub-G1 Fraction,[10]; [15],65.6 ± 1.8%
same,Sub-G1 Fraction,"[10]; Table 8, 7.9 μM test compound alone, drug-free control 3.4 ± 0.9%",4.70 ± 0.50%
same,Sub-G1 Fraction,"[10]; Table 8, 7.9 μM test compound plus 1.18 μM irinotecan",53.10 ± 3.30%
same,Sub-G1 Fraction,"[10]; Table 9, 7.9 μM compound A plus 1.18 μM Irinotecan, 7 days",49.8 ± 1.30%
same,Sub-G1 Fraction,"[10]; Table 9, single-agent treatment, 7.9 μM compound A, 7 days",8.9 ± 0.8%
same,IC50,[11],1100 nM
